The values below are quoted from earlier work in patent publication US6645392B2, “Method of removing wrinkles from fabric” (The Procter & Gamble Company, priority 2000, dated 2003).

The conditions of the data set: for water solubility: in water.

Consider `OCCOc1ccccc1` [2-phenoxyethanol], for which the water solubility entry was “about 2.67%”.

Take `OCCc1ccccc1` [2-phenylethanol]: the water solubility result is reported as “about 2%”. Consider `O=[N+]([O-])C1(Br)COCOC1` [Bronidox L, 5-bromo-5-nitro-1,3-dioxane], for which the water solubility entry was “about 0.46%”. Take `O=[N+]([O-])C(Br)(CO)CO` [Bronopol, 2-bromo-2-nitropropane-1,3-diol]: the water solubility result is given as “about 25%”. For `CC1(C)C(=O)N(CO)C(=O)N1CO` [DMDM hydantoin, 1,3-bis(hydroxymethyl)-5,5-dimethyl-2,4-imidazolidinedione], the water solubility entry is reported as “more than 50%”.

For the compound `ClC=CC[N+]12CN3CN(CN(C3)C1)C2.[Cl-]` [Dowicil 200, 1-(3-Chlorallyl)-3,5,7-triaza-1-azoniaadamantane chloride], the “solubility in water” value was “freely soluble in water”. On to `OCc1ccccc1` [benzyl alcohol], for which the water solubility result is recorded as “about 4%”. As to `[H]/N=C(\N/C(=N/[H])NCCCCCCNC(=N)NC(=N)Nc1ccc(Cl)cc1)Nc1ccc(Cl)cc1` [chlorhexidine diacetate, 1,1′-hexamethylene bis(5-(p-chlorophenyl)biguanide), reference compound], the water solubility entry is reported as “about 1.8%”.

With `[H]/N=C(\N/C(=N/[H])NCCCCCCNC(=N)NC(=N)Nc1ccc(Cl)cc1)Nc1ccc(Cl)cc1` [chlorhexidine digluconate, 1,1′-hexamethylene bis(5-(p-chlorophenyl)biguanide), reference compound], the water solubility entry is listed as “about 70%”. As to `CC(C)(O)C(Cl)(Cl)Cl` [chlorobutanol, 1,1,1-Trichloro-2-methylpropan-2-ol], the water solubility result is reported as “about 0.8%”. In the case of `[Na+].[O-][n+]1ccccc1[S-]` [sodium pyrithione], the water solubility entry is recorded as “about 50%”.
